Laboratory results published in paper PMC12751025, “α‑Aminoboronic Acid Moieties in Boro Dipeptides Modulate Proteasome Subunit Selectivity and Provide Access to Compounds with Potent Anticancer and Anti-Inflammatory Activity” (Journal of Medicinal Chemistry, 2025).
≈ marks a conversion by molar mass, not a printed value.

Columns and labels:
[1] = Gastrointestinal tract parallel artificial membrane permeability (PAMPA) assay; assay type: in vitro ADME; details: GIT PAMPA; for Permeability, Log10 [cm/s]: pH 7.4, 50 μM, 4 hours; for Papp at 4 h, 50 μM: pH 7.4, read-out: Pe
Procedure: Gastrointestinal tract parallel artificial membrane permeability (PAMPA) assay All steps of the PAMPA were carried out according to the pION Inc. PAMPA Explorer™ Manual. The main principle of the assay is the incubation of the compound in the donor chamber (a well in the Donor Plate) with an aqueous buffer, which is separated from the acceptor chamber (a well in the Acceptor Plate) with another buffer by a phospholipid or hydrocarbon membrane fixed on a filter support. After the test, concentrations in the corresponding donor and acceptor wells are measured, and permeability is calculated. The GIT model was simulated using the GIT-0 phospholipid mix.
Verapamil, quinidine (high permeability), and ranitidine (low permeability) were used as reference […]
All compounds were tested in triplicate. Prisma HT buffer (pH 7.4) containing 50 μM test compounds (0.5% DMSO) was added to the Donor Plate wells. Acceptor Sink Buffer was added to each well of the Acceptor Plate. Incubation was done at room temperature for 4 hours without stirring. After […]
incubation, aliquots from both plates were transferred to optic UV-Vis plates, and optic plates were read on a microplate reader in absorbance mode in the range of 230-550 nm with a 4 nm step. Then, the apparent permeability coefficient was calculated. […]
(§1) In order to define non-specific loss of the compound during this assay, standard solution was created by mixing an aliquot of spiked plasma with blank buffer without dialysis. Two aliquots of the standard solution were incubated with shaking (250 rpm) at 37 °C, 5% CO2, and a saturating humidity (~95%) for 5 h (recovery samples). The other two aliquots were immediately diluted with acetonitrile and stored at 4 °C until LC-MS/MS analysis (stability samples). All samples were diluted 5-fold with 90% acetonitrile with internal standard with subsequent plasma proteins sedimentation by centrifuging at 6000 rpm for 5 min. Supernatants were analyzed using HPLC system coupled with tandem mass spectrometer. Verapamil was used as a reference compound to control proper assay […]
Bortezomib and its analogs are known to exist as the free boronic acid as well as dimeric and trimeric boronic anhydrides. These forms interconvert rapidly in solution and are indistinguishable by routine […]
activity of such compounds. On UHPLC, the interconverting boronic species were not chromatographically resolved; however, diastereomers were at least partially separated, yielding two distinct chromatographic signals with identical mass spectra. By contrast, the bortezomib reference standard produced a single chromatographic signal, consistent with its pure enantiomeric form (see

[2] = Metabolic stability in human liver microsomes; assay type: in vitro ADME; details: for half-life at 2 μM / k el at 2 μM / microsomal CLint at 2 μM: pH 7.4, human liver microsomes, 40 min
Procedure: Metabolic stability in human liver microsomes
Microsomal incubations were carried out in 96-well plates in 5 aliquots of 30 μL each (one for each time point). Liver microsomal incubation medium comprised of phosphate buffer (100 mM, pH 7.4), MgCl2 (3.3 mM), NADPН (3 mM), glucose-6-phosphate (5.3 mM), glucose-6-phosphate dehydrogenase (0.67 units/ml) with 0.42 mg of liver microsomal protein per mL. In the control reactions, the NADPH-cofactor system was substituted with phosphate buffer. Test compounds (2 μM, final acetonitrile concentration 1.6 %) were incubated with microsomes at 37 °C, shaking at 100 rpm. Five time points over 40 min were analyzed. The reactions were stopped by adding 4 volumes of acetonitrile with internal standard to incubation aliquots, followed by protein sedimentation by centrifuging at 5500 rpm for 5 min. Each reaction was performed in duplicates. Supernatants were analyzed using the HPLC system coupled with a tandem mass spectrometer. […]

[3] = Human plasma protein binding, equilibrium dialysis; assay type: in vitro ADME; details: for % of bound compound: human plasma, 1 μM, dialysis 5 h; for recovery at 5 h, 1 µM: human, pH 7.4; for recovery at 5 h, 1 µM / Stability [%]: plasma protein binding assay
Procedure: Human plasma protein binding
as §1, with “The assay was performed in a multiple-use 96-well dialysis unit (HTD96b dialyzer). Each individual well unit consisted of two chambers separated by a vertically aligned dialysis membrane of predetermined pore size (MWCO 14 kDa). 125 µL of non-diluted plasma spiked with the compound (1 μM, final DMSO and acetonitrile concentration was 0.005% and 1%, respectively) was added to one chamber and the same volume of PBS buffer pH 7.4 to the other chamber. HTD96b dialyzer was incubated with shaking (250 rpm) at 37 °C, 5% CO2, and a saturating humidity (~95%) for 5 h. For samples preparation, an aliquot of the content of each chamber had been mixed with the same volume of the blank opposite matrix. In” for “In”, “spectrometer.” for “spectrometer. Verapamil was used as a reference compound to control proper assay”

Kinetic solubility = assay type: physicochemical; details: 25 °C; for solubility at 2 h / solubility kinetic at 2 h: phosphate-buffered saline, pH 7.4, aqueous buffer, kinetic from dmso stock; for solubility at 2 h: read-out: PBS solubility, pH 7.4; for solubility kinetic at 2 h: CSV column, unit inferred
Procedure: Briefly, using a 20 mM (10 mM for 5l) stock solution of the compound in 100% DMSO, dilutions were prepared to a theoretical concentration of 400 μM (200 μM for 5l) in duplicates in phosphate-buffered saline pH 7.4 (138 mM NaCl, 2.7 mM KCl, 10 mM K-phosphate) with 2% final DMSO. The experimental compound dilutions in PBS were further allowed to equilibrate at 25 °C on a thermostatic shaker for two hours and then filtered through HTS filter plates using a vacuum manifold. The filtrates of test compounds were diluted 2-fold with acetonitrile with 2% DMSO before measuring.
In parallel, using a 20 mM (10 mM for 5l) stock solution of the compound in 100% DMSO dilutions were prepared to theoretical concentrations of 0 μM (blank), […] (0 μM (blank), 10 μM, 25 50 μM, and 100 μM,μM for 5l) in 50% acetonitrile/PBS with 2% final DMSO to generate calibration curves. Ondansetron was used as a reference compound to control proper assay performance. 200 μL of each sample was transferred to a 96-well plate and measured in the 230-550 nm range with a 5 nm step. […]

LPS-stimulated PBMCs = assay: Cytokine secretion, Cytometric Bead Array; assay type: cell-based, human; details: for dose-dependent effects on cytokine release from LPS-stimulated PBMCs: dose–response curves (Figure S12)
Procedure: PBMCs (1.5 × 10^6/mL) were plated in culture media in 96-well round-bottom plates. After a 60 min treatment with compounds at 37 °C and 5% CO2, cells were stimulated with LPS (Escherichia coli, O111:B4, 1 μg/mL, Sigma) for 24 h. Supernatants were then collected and analyzed for cytokine release by Human Inflammatory Cytokine Cytometric Bead Array (BD Biosciences, New Jersey, USA).

[4] = kinetic solubility, 2% DMSO, two hours, theoretical concentration 400 μM (200 μM for 5l)

Pe [1]	Permeability, Log10 [cm/s] [1]	Papp at 4 h, 50 μM [1]	microsomal stability ([2]; compared with bortezomib)	half-life at 2 μM [2]	k el at 2 μM [2]	microsomal CLint at 2 μM [2]	% of bound compound [3]	recovery at 5 h, 1 µM [3]	Stability [%] [3]	solubility at 2 h (Kinetic solubility; [4])	solubility kinetic at 2 h (Kinetic solubility)	PBS solubility, pH 7.4 (Kinetic solubility; [4])	Compound	Effect on secretion of cytokines in LPS-stimulated PBMCs (LPS-stimulated PBMCs; 250 nM, 1 h pretreatment, LPS 1 μg/mL, 24 h, IL-1, IL-6, IL-8, IL-10, TNF-α)	dose-dependent effects on cytokine release from LPS-stimulated PBMCs (LPS-stimulated PBMCs)
15.8 ×10⁻⁶ cm/s	-4.8 ± 0.06 Log10 [cm/s]	15.8 ×10⁻⁶ cm/s	higher microsomal stability	39.4 min	0.0003 s⁻¹	42 µL/min/mg	91%	93%	86%	≥ 200 µM	> 200 µM		O=C(N[C@@H](Cc1ccccc1)C(=O)N[C@H](B(O)O)C1CCCC1)c1cnccn1 [5l, ((R)-Cyclopentyl((S)-3-phenyl-2-(pyrazine-2-carboxamido)propanamido)methyl)boronic Acid]	strongest effects	very comparable effects
15.8 ×10⁻⁶ cm/s	-4.8 ± 0.02 Log10 [cm/s]	15.8 ×10⁻⁶ cm/s		34.5 min	0.000333 s⁻¹	48 µL/min/mg	93%	100%	92%	399 µM (≈ 153 µg/mL)	399 µM (≈ 153 µg/mL)	> 200 μM	CC(C)C[C@H](NC(=O)[C@H](Cc1ccccc1)NC(=O)c1cnccn1)B(O)O [bortezomib, reference compound]		very comparable effects
